{
  "source": "patent US6613541B1",
  "about": "“Method for monitoring proteasome inhibitor drug action” (Millennium Pharmaceuticals, Inc., priority 1998, dated 2003)",
  "key": {"[1]": {"parameters": "species or system Sprague-Dawley rats", "conditions": "rat, in vivo, iv", "method": "A single dose intravenous pharmacokinetics study with N-(pyrazine) carbonyl-L-phenylalanine-L-leucine boronic acid (1) was conducted in Sprague-Dawley rats (140 to 280 g). Animals were assigned to 3 groups (6/sex in Groups 1 and 2; 9/sex in Group 3). Animals in groups 1, 2, and 3 received 0.03, 0.1 or 0.3 mg/kg of 1, respectively, in the same dose volume.\nBlood samples (approximately 1.0 mL) were collected from the jugular vein of animals pre-dose and at approximately 10 and 30 min and 1, 3 and 24 h post-dose on Day 1."}, "20S proteasome [2]": {"system": "20S proteasome", "test": "Ratio of chymotryptic to tryptic activity, titration of inhibitor in human samples", "format": "biochemical", "method": "The percent inhibition (%I) is then calculated according to the following equation: [formula]\nμt=activation factor determined upon titration of the proteasome inhibitor. For the proteasome inhibitor 1, βt=1.28 in human samples.\nComplete activation of the 20S roteasome is achieved within 10 minutes.\nβt=activation factor determined upon titration of the proteasome inhibitor. For the proteasome inhibitor 1, βt=1.28 in human samples."}, "[3]": {"system": "20S proteasome in rat white blood cell lysates", "test": "Ratio of chymotryptic to tryptic activity in rat white blood cell lysates", "format": "biochemical", "conditions": "fit of vc/vt", "description": "Data was fitted as in Example 10, to give kc/kt=17.6± and βt=1.1±0.2 (FIG. 13)."}, "20S proteasome [4]": {"system": "20S proteasome", "test": "Ex vivo 20S proteasome activity in peripheral white blood cells of mice after single intravenous administration", "parameters": "species or system female CD2-F1 mice and female BALB/c mice", "method": "(§1) The amount of 20S proteasome activity in the test sample is calculated according to the following formula: [formula]\n(§2) Dose formulations of 1 were prepared daily during the course of the study. Dilutions were prepared from a stock solution. The stock solution of 1 was made up in 98% saline (0.9%), 2% ethanol with 0.1% ascorbic acid. Dilutions of the stock were made in the same vehicle.\n(§3) Drugs were administered in vehicle intravenously (IV) using a dose volume of 100 μL per mouse or 1.0 mL/kg in rats. Control groups were administered with the vehicle (98% saline [0.9%], 2% ethanol, 0.1% ascorbic acid). Animals were dosed with 1 as a single IV bolus given either once or on multiple occasions.\n(§4) Following IV dosing with 1, blood was withdrawn at various time points and peripheral white blood cells were isolated.\nThe vehicle was […] [0.9%], 2% ethanol, 0.1% ascorbic acid. Blood samples were collected at 1.0 and 24 h following administration. Due to the blood volume required in the 20S proteasome activity assay, groups of five mice were sacrificed at the same time and their blood pooled to generate single data points."}, "20S proteasome [5]": {"system": "20S proteasome", "test": "Ex vivo 20S proteasome activity in peripheral white blood cells of rats after single intravenous administration", "parameters": "species or system female Wistar rats", "method": "as §1, §2, §3, §4\nBlood samples were collected at 1.0, 24 and 48 h following administration of 1."}, "20S proteasome [6]": {"system": "20S proteasome", "test": "Ex vivo 20S proteasome activity in peripheral white blood cells of rats after repeat intravenous administration", "method": "as §1, §3\nIn an additional repeat dose study, male Sprague-Dawley rats (250 to 450 g; n=6 per group) were treated with twice weekly intravenous doses of 1 (0.01 to 0.35 mg/kg/day in a dose volume of 1.0 mL/kg) for two weeks. […] Blood samples were collected 1.0 h after the last dose for evaluation of 20S proteasome activity."}, "20S proteasome [7]": {"target": "T1, 20S proteasome (Rattus norvegicus, UniProt P28075)", "T1 sequence (P28075 60-263)": "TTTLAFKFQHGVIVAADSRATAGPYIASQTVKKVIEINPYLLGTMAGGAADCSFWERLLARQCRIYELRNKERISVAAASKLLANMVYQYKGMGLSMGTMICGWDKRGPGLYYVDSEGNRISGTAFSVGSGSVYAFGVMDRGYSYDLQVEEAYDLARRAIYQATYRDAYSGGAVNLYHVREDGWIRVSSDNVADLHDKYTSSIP", "method": "In two studies, female Wistar rats (150 to 200 g) were administered a single intravenous dose of 1 (0.03, 0.1 and 0.3 mg/kg in a dose volume of 1.0 mL/kg). […] Tissue samples were collected from liver and brain at 1.0, 24 and 48 h following administration for evaluation of 20S proteasome activity."}, "20S proteasome [8]": {"system": "20S proteasome", "test": "Ex vivo 20S proteasome activity in primate white blood cells, twice weekly intravenous dosing for 4 weeks", "parameters": "species or system Cynomolgus monkeys", "method": "Male and female Cynomolgus monkeys (2.2 to 3.5 kg) were assigned to four groups (5/sex/group). Each group received 0 (vehicle control), 0.045, 0.067 or 0.100 mg/kg/dose of 1 as a single intravenous injection in a dose volume of 0.3 mL/kg twice weekly for 4 weeks (days 1, 5, 8, 12, 15, 19, 22 and 26). […] Three males from the control, low- and mid-dose groups, two high-dose males, and three females/group were sacrificed at the end of treatment on Day 27. Two animals/sex/group were designated as recovery animals and received treatment for 4 weeks followed by 2 weeks of recovery; they were sacrificed on Day 41.\nBlood was collected for 20S proteasome activity determination prior to treatment, at 1.0 h after dosing on Days 1, 8, 15 and 22, and at 1.0 h prior to dosing on Days 5, 12, 19 and 26; and on Days 31, 34, 38, and 41 (recovery sacrifice animals)."}, "[9]": {"system": "purified 20S proteasome from rabbit reticulocytes (tryptic activity)", "test": "Tryptic activity of purified 20S proteasome (Rs substrate, fluorometry)", "quoted_text": "The assay is based upon the SDS-inducible chymotrypsin-like and trypsin-like activities of free 20S proteasome particles. It uses fluorometry to measure the rate at which the 20S proteasome hydrolyzes an amide bond in a small peptide substrate.\nThe Rs substrate is dissolved to 10 mM in DMSO. The Rs substrate buffer, containing 20 mM HEPES, 0.5 mM EDTA, 0.6% DMSO, and 60 μM Rs substrate, is prepared.\n20 μL of a test sample is added to a cuvette containing 2 mL of Rs substrate buffer at 37° C., and the reaction is allowed to run for 10 minutes. Complete activation of the 20S proteasome is achieved within 10 minutes. Consistent results are obtained for readings taken after 4 minutes and up to 10 minutes. The maximum linear slope for at least 1 minute of data is measured. If the rate is less than 1 pmol AMC/sec, the measurement is repeated using 20 μL of the test sample in 800 μL Rs buffer.\n(§5) Chymotryptic and tryptic assays were performed as described in Examples 3 and 5 at increasing concentrations of the proteasome inhibitor 1.\nChymotryptic and tryptic assays were performed as described in Examples 3 and 5 at increasing concentrations of the proteasome inhibitor 1. The data was fitted to vc/vt=kc/kt*(1−f)/(1−f+βt*f), where kc/kt=2.88±0.03, βt=1.38±0.05, and %I=f*100 (FIG. 12)."}, "[10]": {"system": "purified 20S proteasome from rabbit reticulocytes (chymotryptic activity)", "test": "Chymotryptic activity of purified 20S proteasome (Ys substrate, fluorometry)", "quoted_text": "The assay is based upon the SDS-inducible chymotrypsin-like activity of free 20S particles. It uses fluorometry to measure the rate at which the 20S proteasome hydrolyzes an amide bond in a small peptide substrate. Measurement of this rate in the absence and in the presence of an inhibitor allows a determination of how enzyme is bound by inhibitor.\nThe Ys substrate is dissolved to 6 mM in DMSO. A 2% (2 g/100 mL) solution of SDS in MilliQ water is prepared in a glass bottle. The Ys substrate buffer, containing 20 mM HEPES, 0.5 mM EDTA, 0.035% SDS, 1% DMSO, and 60 μM Ys substrate, is prepared. The final pH of the Ys buffer is 8.0.\n10 μL of a test sample is added to a cuvette containing 2 mL of Ys substrate buffer at 37° C., and the reaction is allowed to run for 10 minutes. Complete activation of the 20S proteasome is achieved within 10 minutes. Consistent results are obtained for readings taken after 4 minutes and up to 10 minutes. The maximum linear slope for at least 1 minute of data is measured. If the rate is less than 1 pmol AMC/sec, the measurement is repeated using 20 μL of the test sample.\nas §5"}, "20S proteasome [11]": {"target": "T1, 20S proteasome", "test": "Ex vivo 20S proteasome activity in rat blood and tissues 1.0 h after intravenous administration (third study)", "parameters": "from tissue; host or cells: rat liver and brain (Wistar); blood, brain, colon, liver, muscle, prostate, testes (Sprague-Dawley); species or system male Sprague-Dawley rats", "method": "Blood and tissue samples were collected 1.0 h following administration for evaluation of 20S proteasome activity. The tissues collected were brain, colon, liver, muscle (gastrocnemius), prostate and testes."}, "[12]": {"conditions": "alternate daily IV for 14 days, 24 h after last dose"}, "[13]": {"conditions": "daily IV for 7 days, 24 h after last dose"}, "[14]": {"conditions": "once weekly IV for 8 weeks, 24 h after last dose"}, "[15]": {"conditions": "inferred from absence of 20S proteasome inhibition"}, "[16]": {"conditions": "1.0 h after single IV 0.1 and 0.3 mg/kg"}},
  "note": "Entries after “also recorded” stand apart in the source; their conditions may differ. Like-named read-outs stand apart in the source and are kept apart here.",
  "data": [
    {"smiles": "CC(C)C[C@H](NC(=O)[C@H](Cc1ccccc1)NC(=O)c1cnccn1)B(O)O", "note": "[compound 1, N-(pyrazine)carbonyl-L-phenylalanine-L-leucine boronic acid]", "values": [
      {"measurement": "clearance from the blood", "setting": "[1]", "result": "rapidly cleared from the blood"},
      {"measurement": "time to peak concentration (Tmax)", "setting": "[1]; 0.3 mg/kg", "result": "≤ 10", "unit": "min"},
      {"measurement": "βt (activation factor determined upon titration of the proteasome inhibitor)", "setting": "20S proteasome [2]", "result": 1.28},
      {"measurement": "βt (activation factor of tryptic activity)", "setting": "[3]", "result": "1.1±0.2"},
      {"measurement": "20S proteasome activity in white blood cells", "setting": "20S proteasome [4]; 1.0 h after single IV 0.1 to 3.0 mg/kg, all dose groups", "result": "significant (p<0.05) dose-related decrease"},
      {"measurement": "20S proteasome activity in white blood cells", "setting": "20S proteasome [4]; 24 h after single IV 0.1 to 3.0 mg/kg", "result": "starts to recover"},
      {"measurement": "inhibition of 20S proteasome activity in peripheral white blood cells (overall)", "setting": "20S proteasome [4]; single intravenous injection, mice", "result": "dose-dependent and reversible inhibition"},
      {"measurement": "20S proteasome activity in white blood cells", "setting": "20S proteasome [5]; 1.0 h after single IV 0.03 to 0.3 mg/kg", "result": "significant (p<0.05) dose-related decrease"},
      {"measurement": "20S proteasome activity in white blood cells", "setting": "20S proteasome [5]; 24 h after single IV 0.03 to 0.3 mg/kg", "result": "smaller, but remained significant (p<0.05) in the higher dose groups"},
      {"measurement": "20S proteasome activity in white blood cells", "setting": "20S proteasome [5]; 48 h after single IV 0.03 to 0.3 mg/kg", "result": "no longer significantly decreased"},
      {"measurement": "inhibition of 20S proteasome activity in peripheral white blood cells (overall)", "setting": "20S proteasome [5]; single intravenous injection, rats", "result": "dose-dependent and reversible inhibition"},
      {"measurement": "extent of 20S proteasome inhibition compared with single dose", "setting": "20S proteasome [6]; 24 h after 7 daily IV doses", "result": "greater than that observed 24 h after administration of a single intravenous dose"},
      {"measurement": "20S proteasome activity in white blood cells", "setting": "20S proteasome [6]; [12]", "result": "significant dose-related decrease"},
      {"measurement": "dose groups with significant (p<0.05) decrease in 20S proteasome activity", "setting": "20S proteasome [6]; [12]", "result": "≥ 0.2", "unit": "mg/kg"},
      {"measurement": "20S proteasome activity in white blood cells", "setting": "20S proteasome [6]; [13]", "result": "dose-related decrease"},
      {"measurement": "doses with significant inhibition of 20S proteasome activity", "setting": "20S proteasome [6]; [13]", "result": "≥ 0.05", "unit": "mg/kg"},
      {"measurement": "20S proteasome activity in white blood cells", "setting": "20S proteasome [6]; [14]", "result": "significant (p<0.05) dose-related decrease"},
      {"measurement": "dose groups with significant (p<0.05) decrease in 20S proteasome activity", "setting": "20S proteasome [6]; [14]", "result": "≥ 0.1", "unit": "mg/kg"},
      {"measurement": "20S proteasome activity in white blood cells", "setting": "20S proteasome [6]; twice weekly IV for 2 weeks (4 doses, 0.01 to 0.35 mg/kg/day), male Sprague-Dawley rats, 1.0 h after last dose", "result": "dose-related decrease"},
      {"measurement": "dose groups with significant (p<0.05) decrease in 20S proteasome activity", "setting": "20S proteasome [6]; twice weekly IV for 2 weeks, male Sprague-Dawley rats, 1.0 h after last dose", "result": "≥ 0.03", "unit": "mg/kg"},
      {"measurement": "20S proteasome activity in rat liver", "setting": "20S proteasome [7]; 1.0 h after single IV 0.03, 0.1 and 0.3 mg/kg", "result": "significant (p<0.05) dose-related decrease"},
      {"measurement": "20S proteasome activity in rat liver", "setting": "20S proteasome [7]; 24 h after single IV, high dose group 0.3 mg/kg", "result": "smaller, but remained significant (p<0.05) in the high dose group"},
      {"measurement": "20S proteasome activity in rat liver", "setting": "20S proteasome [7]; 48 h after single IV", "result": "returned to baseline"},
      {"measurement": "penetration of 1 into brain tissue", "setting": "20S proteasome [7]; [15]", "result": "lack of penetration"},
      {"measurement": "20S proteasome inhibition in brain tissue", "setting": "20S proteasome [7]; single IV 0.03, 0.1 and 0.3 mg/kg, 1.0, 24 and 48 h", "result": "No 20S proteasome inhibition was observed"},
      {"measurement": "clinical condition of high-dose male", "setting": "20S proteasome [8]; 0.100 mg/kg/dose IV twice weekly, Day 26 after receiving 8 doses", "result": "sacrificed in moribund condition"},
      {"measurement": "white blood cell 20S proteasome activity", "setting": "20S proteasome [8]; 1.0 h after dosing, 0.045, 0.067 or 0.100 mg/kg/dose IV twice weekly", "result": "significant and dose-related decrease"},
      {"measurement": "white blood cell 20S proteasome activity", "setting": "20S proteasome [8]; 72 hours after dosing, prior to the subsequent dose", "result": "recovered"},
      {"measurement": "20S proteasome activity in white blood cells of the moribund animal", "setting": "20S proteasome [8]; high-dose male at sacrifice on Day 26 after 8 doses", "result": "low residual 20S proteasome activity"},
      {"measurement": "βt (activation factor of tryptic activity)", "setting": "[9]; fit of vc/vt, purified 20S proteasome from rabbit reticulocytes", "result": "1.38±0.05"},
      {"measurement": "effect on tryptic activity", "setting": "[9]; increasing concentrations of 1, same concentration range", "result": "activation; also recorded: activated"},
      {"measurement": "βc (factor for chymotryptic site activity of E I complex; 0 = total inhibition)", "setting": "[10]", "result": 0},
      {"measurement": "effect on chymotryptic activity", "setting": "[10]; increasing concentrations of 1", "result": "fully inhibits; also recorded: fully inhibitable"},
      {"measurement": "20S proteasome activity in peripheral white blood cells, colon, liver, muscle (gastrocnemius), and prostate", "setting": "20S proteasome [11]; [16]", "result": "Significant (p<0.05) dose-related decreases"},
      {"measurement": "20S proteasome inhibition in brain and testes", "setting": "20S proteasome [11]; [16]", "result": "No 20S proteasome inhibition was observed"},
      {"measurement": "penetration of 1 into brain and testes", "setting": "20S proteasome [11]; [15]", "result": "lack of 1 penetration"}
    ]}
  ]
}
